Patent publication US20230101768A1, “METHOD TO TREAT MANGANESE TOXICITY AND MANGANESE-INDUCED PA[…] HUMANS” (priority 2021, published 2023)
Like-named read-outs stand apart in the source and are kept apart here.

What was measured:
SLC30A10 promoter = format: cell-based, human
Description: A luciferase reporter plasmid containing the proximal promoter of human SLC30A10 has been previously described and was a gift of Dr. Ruth Valentine (100). The promoter fragment corresponding to bases −679 to +211 relative to the start of transcription was sub-cloned into the Xho1 and SpeI sites of pRRLSIN.cPPTLuciferase.WPRE vector (Addgene, #69251), which is a luciferase vector for lentivirus infections. Deletion mutants were generated using the loop-out modification of the QuikChange protocol.
Lentiviral infections. Stable cells were generated by lentivirus infection essentially as described by us previously (49, 98). Briefly, lentivirus was produced in HEK293T cells by co-transfecting transfer plasmids described above with plasmids coding for a third generation packing system that is routinely used (pRSV-Rev, pRRE, and pCMV-VSVG) (49, 98). Viral supernatants were collected 40-48 h post-transfection. HepG2 cells for infection were plated in a 60 mm dish 24 h before infection so that cells reached a confluence of 30% on the day of infection. Collected viral supernatants were filtered through a 0.45-μm polyvinylidene difluoride filter, and cells were incubated with a 1:2 dilution of viral supernatant containing 5 μg/mL Polybrene (Santa Cruz). […]

VEGF = format: cell-based; conditions: primary human hepatocytes, 250 μM manganese for 4 h
Experimental: (§1) (A) and (B): qRT-PCR assays in cells treated with or without 10 μM LW6 for 1 h followed by 0 or 250 μM manganese for 4 h (A) or with or without 20 μM roxadustat or 80 μM vadadustat for 16 h (B). […] For (B), expression in the absence of drug treatment was normalized to 1. N=3. Mean±SE. *P<0.05 by t-test (A) or one-way ANOVA and Dunnett's post hoc test for the comparison between no drug and other conditions (B).
(§2) Cell culture. HepG2 cells were grown in Eagle's modified essential medium (MEM; Corning) with 10% fetal bovine serum (Atlanta Biologicals), 100 IU/ml penicillin (Corning), and 100 μg/ml streptomycin (Corning). 293T cells were maintained in Dulbecco's modified essential medium/F12 (Thermo) supplemented with 10% fetal bovine serum, penicillin (100 IU/ml), and streptomycin (100 μg/ml). Human primary hepatocytes were purchased from XenoTech (catalog #HPCH10+) and cultured according to protocols provided by the supplier.
(§3) manganese and drug treatments in cell culture. Cells were treated with indicated levels of manganese as manganeseCl2.4H2O (Fisher). Vehicle for manganese treatment was water. Prolyl hydroxylase inhibitors roxadustat (Caymen), vadadustat, and molidustat (both APE-Bio); the HIFα inhibitor LW6 (Selleckchem); the proteasomal inhibitor MG132 (Sigma); and the transcription inhibitor actinomycin D (Sigma) were dissolved in DMSO. […] Vehicle treatment for all drugs was DMSO.
(§4) Quantitative RT-PCR assays. RNA extraction from HepG2 cells and mouse tissue, reverse transcription to cDNA, and qRT-PCR analyses were performed as described by us previously (47, 50). For analyses of mouse brain samples, a part of the midbrain, including the basal ganglia, was used. Transcript levels were quantified using the ΔΔCT method with 18S (in mice) or TBP (in HepG2 cells) as the internal control, also as described by us previously (47, 50).

SLC30A10 [1] = format: cell-based; conditions: primary human hepatocytes, 250 μM manganese for 4 h
Experimental: as §1, §2, §3, §4

C57BL/6J mice = conditions: ~30 mg manganese/kg daily in drinking water, 4 weeks
Experimental: (§5) To assay for the protective effect of roxadustat, animals were exposed to roxadustat or vehicle with or without manganese in drinking water from ˜4 weeks of age. Treatment lasted for 4 weeks from initiation. Roxadustat (Selleckchem) was prepared as a 50 mg/ml stock solution in DMSO, then diluted to 1 mg/ml in sterile phosphate buffered saline (PBS), and delivered by daily i.p. injection at 10 mg/kg. Vehicle was 2% DMSO in PBS. For this experiment, drinking water manganese levels were adjusted to 0.138 mg absolute manganese/ml so that animals received ˜30 mg absolute manganese/kg daily. A higher level of manganese was used because exposure was initiated after weaning, which was necessary because daily i.p. injections for roxadustat delivery were not possible in the pre-weaning period.
(§6) Animals were euthanized using carbon dioxide and tissue dissected for qRT-PCR or ICPMS analyses as described by us previously (50).
Inductively coupled plasma mass spectrometry. Metal measurements using ICP-MS were performed exactly as described by us previously (47, 50, 51, 99).

SLC30A10 [2] = format: in vivo, mice; conditions: oral manganese ~15 mg/kg daily from birth until 8 weeks
Experimental: A well-characterized drinking water-based manganese exposure regimen was used to model human environmental manganese exposure by providing mice with ˜50 mg manganeseCl2.4H2O/kg body weight daily (˜15 mg absolute manganese/kg per day) from birth until 8 weeks of age. This, and related similar, dosing regimens: 1) approximate the increase in manganese exposure in humans consuming well water contaminated with 1.5 mg manganese/L, which is the median well water concentration associated with neurological deficits in children; 2) increase brain manganese levels by ˜2-3 fold, similar to human patients; 3) produce measurable neurobehavioral deficits without overt toxicity; and 4) model exposure to manganese in developmentally-sensitive early-life and adolescent periods (11). Pre-weaning manganese was delivered by pipette directly into the mouth, and post-weaning manganese was delivered in drinking water using procedures described in detail in ref. (11). In brief, pre-weaning dosing was adjusted to each animal's body weight. For this, a stock solution of 69.2 mg absolute manganese/ml prepared in milliQ water was diluted in milliQ water containing 2.5% (wt/vol) of the natural sweetener Stevia (to facilitate intake by pups), and the required manganese amount (0.2 μl manganese stock/g body weight) was delivered in a dose of ˜5-10 μl/animal. For post-weaning exposure, a 27.7 mg absolute manganese/ml stock solution was prepared in water and diluted to 0.069 mg absolute manganese/ml in drinking water, which provided mice with ˜15 mg absolute manganese/kg per day based on a daily water intake of ˜2-5 ml/mouse depending on age.
as §5, §6, §4

## O.O.O.O.[Cl][Mn][Cl] [manganese, manganeseCl2.4H2O]
SLC30A10 promoter
  Luciferase activity after manganese: increased
VEGF
  VEGF expression after manganese: increased
SLC30A10 [1]
  SLC30A10 expression after manganese: increased
C57BL/6J mice
  Blood manganese after manganese treatment: trend towards an increase
  Brain manganese levels, main effect of manganese treatment: increasing
SLC30A10 [2]; 129S4/SvJaeJ mice
  SLC30A10 levels in intestines: not
  SLC30A10 levels in liver: increased
SLC30A10 [2]; C57BL/6J mice
  SLC30A10 levels in intestines: increase
  SLC30A10 levels in liver: not
SLC30A10 [2]; either strain (129S4/SvJaeJ, C57BL/6J)
  Expression of SLC30A10 in the brain: did not impact
